What was measured:
Experiment in all cases: Test C postemergence
blackgrass = type: in vivo, Alopecurus myosuroides
Summary of the method: (§1)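 Visual control ratings on a 0–100 scale (100 = complete control) made against untreated controls after 13 to 15 days in greenhouse. Compounds applied in surfactant-containing solvent mixture, either preemergence to loam/sand-sown seeds or postemergence to 1- to 4-leaf plants (2–18 cm) in peat medium.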

chickweed = type: in vivo, Stellaria media
Summary of the method: as §1

nutsedge, yellow = type: in vivo, Cyperus esculentus
Summary of the method: as §1

johnsongrass = type: in vivo, Sorghum halepense
Summary of the method: as §1

corn = type: in vivo, Zea mays
Summary of the method: as §1

oilseed rape = type: in vivo, Brassica napus
Summary of the method: as §1

oat, wild = type: in vivo, Avena fatua
Summary of the method: as §1

morningglory = type: in vivo, Ipomoea coccinea
Summary of the method: as §1

kochia = type: in vivo, Kochia scoparia
Summary of the method: as §1

foxtail, giant = type: in vivo, Setaria faberii
Summary of the method: as §1

velvetleaf = type: in vivo, Abutilon theophrasti
Summary of the method: as §1

pigweed = type: in vivo, Amaranthus retroflexus
Summary of the method: as §1

ryegrass, Italian = type: in vivo, Lolium multiflorum
Summary of the method: as §1

galium = type: in vivo, Galium aparine
Summary of the method: as §1

ragweed = type: in vivo, Ambrosia elation
Summary of the method: as §1

soybean = type: in vivo, Glycine max
Summary of the method: as §1

crabgrass, large = type: in vivo, Digitaria sanguinalis
Summary of the method: as §1

waterhemp = type: in vivo, Amaranthus rudis
Summary of the method: as §1

[1] = Postemergence, 31 g ai/ha, visually evaluated after 13 to 15 days
[2] = postemergence, 62 g ai/ha, scale 0 to 100
[3] = postemergence, 250 g ai/ha, scale 0 to 100 (0 no effect, 100 complete control)
[4] = postemergence, 125 g ai/ha, scale 0 to 100, 0 no effect, 100 complete control

CCCc1cc(C(=O)NCC)nn1Cc1cc(C(F)(F)F)nn1C [Compound 129]
85: Plant response rating (scale of 0 to 100 where 0 is no effect and 100 is complete control), Pigweed (pigweed; [1]) | Plant response rating, Ragweed (ragweed; [3]) | Plant response rating (scale of 0 to 100 where 0 is no effect and 100 is complete control), Soybean (soybean; [1])
90: Plant response rating (scale of 0 to 100 where 0 is no effect and 100 is complete control), Kochia (kochia; [1]) | Kochia plant response rating (kochia; [2]) | Plant response rating, Kochia (kochia; [3]) | Plant response rating, Kochia (kochia; [4]) | Ragweed plant response rating (ragweed; [2]) | Waterhemp plant response rating (waterhemp; [2]) | Plant response rating, Waterhemp (waterhemp; [3])
95: Pigweed plant response rating (pigweed; [2]) | Plant response rating, Pigweed (pigweed; [3])
10: Plant response rating (scale of 0 to 100 where 0 is no effect and 100 is complete control), Blackgrass (blackgrass; [1]) | Johnsongrass plant response rating (johnsongrass; [2]) | Plant response rating, Johnsongrass (johnsongrass; [3]) | Plant response rating, Johnsongrass (johnsongrass; [4]) | Plant response rating (scale of 0 to 100 where 0 is no effect and 100 is complete control), Corn (corn; [1]) | Corn plant response rating (corn; [2]) | Plant response rating (scale of 0 to 100 where 0 is no effect and 100 is complete control), Crabgrass, Large (crabgrass, large; [1]) | Crabgrass, Large plant response rating (crabgrass, large; [2])
45: Plant response rating, Foxtail, Giant (foxtail, giant; [3])
5: Blackgrass plant response rating (blackgrass; [2]) | Plant response rating, Nutsedge, Yellow (nutsedge, yellow; [3]) | Plant response rating, Nutsedge, Yellow (nutsedge, yellow; [4]) | Plant response rating (scale of 0 to 100 where 0 is no effect and 100 is complete control), Johnsongrass (johnsongrass; [1]) | Ryegrass, Italian plant response rating (ryegrass, Italian; [2]) | Plant response rating, Ryegrass, Italian (ryegrass, Italian; [3]) | Plant response rating, Ryegrass, Italian (ryegrass, Italian; [4])
80: Plant response rating, Chickweed (chickweed; [4]) | Plant response rating (scale of 0 to 100 where 0 is no effect and 100 is complete control), Morningglory (morningglory; [1]) | Plant response rating, Galium (galium; [3]) | Plant response rating, Galium (galium; [4]) | Plant response rating, Waterhemp (waterhemp; [4])
60: Plant response rating (scale of 0 to 100 where 0 is no effect and 100 is complete control), Oilseed Rape (oilseed rape; [1]) | Oilseed Rape plant response rating (oilseed rape; [2]) | Plant response rating (scale of 0 to 100 where 0 is no effect and 100 is complete control), Galium (galium; [1])
65: Plant response rating, Oilseed Rape (oilseed rape; [4]) | Velvetleaf plant response rating (velvetleaf; [2]) | Galium plant response rating (galium; [2]) | Plant response rating (scale of 0 to 100 where 0 is no effect and 100 is complete control), Waterhemp (waterhemp; [1])
98: Soybean plant response rating (soybean; [2]) | Plant response rating, Soybean (soybean; [3]) | Plant response rating, Soybean (soybean; [4])
35: Plant response rating, Blackgrass (blackgrass; [4]) | Plant response rating, Oat, Wild (oat, wild; [3]) | Plant response rating, Oat, Wild (oat, wild; [4]) | Plant response rating, Foxtail, Giant (foxtail, giant; [4]) | Plant response rating, Crabgrass, Large (crabgrass, large; [4])
30: Plant response rating (scale of 0 to 100 where 0 is no effect and 100 is complete control), Oat, Wild (oat, wild; [1]) | Oat, Wild plant response rating (oat, wild; [2])
15: Plant response rating, Corn (corn; [3]) | Plant response rating, Corn (corn; [4]) | Plant response rating (scale of 0 to 100 where 0 is no effect and 100 is complete control), Foxtail, Giant (foxtail, giant; [1])
70: Chickweed plant response rating (chickweed; [2]) | Plant response rating, Oilseed Rape (oilseed rape; [3])
0: Plant response rating (scale of 0 to 100 where 0 is no effect and 100 is complete control), Nutsedge, Yellow (nutsedge, yellow; [1]) | Nutsedge, Yellow plant response rating (nutsedge, yellow; [2]) | Plant response rating (scale of 0 to 100 where 0 is no effect and 100 is complete control), Ryegrass, Italian (ryegrass, Italian; [1])
75: Plant response rating, Ragweed (ragweed; [4])
20: Plant response rating, Blackgrass (blackgrass; [3]) | Foxtail, Giant plant response rating (foxtail, giant; [2]) | Plant response rating, Crabgrass, Large (crabgrass, large; [3])
25: Plant response rating (scale of 0 to 100 where 0 is no effect and 100 is complete control), Velvetleaf (velvetleaf; [1])
55: Plant response rating (scale of 0 to 100 where 0 is no effect and 100 is complete control), Ragweed (ragweed; [1])
50: Plant response rating (scale of 0 to 100 where 0 is no effect and 100 is complete control), Chickweed (chickweed; [1])
100: Plant response rating, Chickweed (chickweed; [3]) | Morningglory plant response rating (morningglory; [2]) | Plant response rating, Morningglory (morningglory; [3]) | Plant response rating, Morningglory (morningglory; [4]) | Plant response rating, Pigweed (pigweed; [4])
